Laboratory results as given in paper PMC11219871, “Epigenetic-based differentiation therapy for Acute Myeloid Leukemia” (Nature Communications, 2024).
Where “and” joins values, the source holds several entries; their conditions need not be identical. Equal entries are not always repeated.

Experiments:
[1] = tested on: HL-60; assay: q-RT-PCR of MYC, CDKN2A, CDKN1A, GATA2, TAL1, CEBPA, SPI1; assay type: cell-based, human
Description: (§1) RNA was extracted with TRIzol Reagent (Invitrogen) according to the manufacturer’s instructions. First, cDNA was synthesized from 1 µg of total RNA using the PrimeScript RT reagent Kit (Perfect Real Time) (Cat No RR037A, TaKaRa) following the manufacturer’s instructions. The quality of cDNA was checked by a multiplex PCR that amplifies PBGD, ABL, BCR and β2-MG genes. […] The following program conditions were used for the q-PCR: 50 °C for 2 min, 95 °C for 60 s following by 45 cycles at 95 °C for 15 s and 60 °C for 60 s; melting program, one cycle at 95 °C for 15 s, 40 °C for 60 s, and 95 °C for 15 s. The relative expression of each gene was quantified by the […] method using the gene GUS as an endogenous control. The sequence of primers used can be found in Supplementary Table 10.

[2] = tested on: MOLM-13; assay: as above; assay type: cell-based, human
Description: as §1

[3] = tested on: ML-2; assay: as above; assay type: cell-based, human
Description: as §1

[4] = tested on: Rag2-/-γc-/- mice; assay: Toxicity assay: hematological and liver parameters, liver histology; assay type: in vivo, mouse; settings: for ALT (Counts (U/L)) / AST (Counts (U/L)) / Bilirubin (Counts (mg/dl)) / HDL (Counts (mmol/l)) / LCLC3 (Counts (mmol/l)) / UREA (Counts (mg/dl)) / Hematocrit (Counts (%)) / Hemoglobin (Counts (g/dl)) / PLT (Counts (K/O)) / RBC (Counts (K/O)) / WBC (Counts (K/O)): healthy Rag2-/-γc-/- mice, individual mice, 10 mg/kg; for ALT (Counts (U/L)) / AST (Counts (U/L)) / Bilirubin (Counts (mg/dl)) / HDL (Counts (mmol/l)) / LCLC3 (Counts (mmol/l)) / UREA (Counts (mg/dl)): 10 mg/kg i.p. daily for 3 weeks then 7-day washout; for Hematocrit (Counts (%)) / Hemoglobin (Counts (g/dl)) / PLT (Counts (K/O)) / RBC (Counts (K/O)) / WBC (Counts (K/O)): 10 mg/kg i.p. daily for 3 weeks
Description: After treating Rag2^−/−γc^−/− mice with i.p. […] Hematological and liver parameters were measured.
Hematological parameters, including white blood cells, red blood cells, platelet count, hemoglobin and hematocrit, were measured on a Hemavet Hematology Analyzer (Drew Scientific). Liver enzymes (albumin, alkaline phosphatase, aspartate transaminase, alanine transaminase), cholesterol, bilirubin, urea and bile acid levels were analyzed from mice serum using a C311 Cobas Analyzer (Roche Diagnostics).
Mice livers were fixed in paraformaldehyde at 4% for 6–8 h, washed twice with saline solution and stored in 70% ethanol. Samples were included in paraffin, and 3-µm serial sections were cut, deparaffinated, and stained with hematoxylin–eosin.

[5] = target: T1, cytochrome P450 2C9 (Homo sapiens, UniProt P11712); assay: CYP inhibition in human liver microsomes; assay type: in vitro ADME; settings: 10 µM
T1 construct: Corning Cat # 452117); tissue Corning 452117; host or cells: human liver microsomes
T1 sequence (P11712 whole entry): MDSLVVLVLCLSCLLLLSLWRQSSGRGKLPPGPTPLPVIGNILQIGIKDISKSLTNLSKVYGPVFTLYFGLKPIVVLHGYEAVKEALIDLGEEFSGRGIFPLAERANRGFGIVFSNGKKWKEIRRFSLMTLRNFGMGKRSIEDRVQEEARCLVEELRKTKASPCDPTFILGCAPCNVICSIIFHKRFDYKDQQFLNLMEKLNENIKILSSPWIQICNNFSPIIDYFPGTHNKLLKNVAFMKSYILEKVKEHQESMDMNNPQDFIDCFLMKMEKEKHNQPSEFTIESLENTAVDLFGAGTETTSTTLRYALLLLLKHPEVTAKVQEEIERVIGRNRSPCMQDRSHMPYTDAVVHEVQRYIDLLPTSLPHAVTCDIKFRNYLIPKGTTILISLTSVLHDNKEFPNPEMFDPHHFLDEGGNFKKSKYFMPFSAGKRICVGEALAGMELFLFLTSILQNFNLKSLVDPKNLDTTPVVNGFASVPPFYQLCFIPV
Description: (§2) This study was conducted at Wuxi (http://www.wuxi.com/). The inhibitory effects of CM-444 and CM-1758 on five human cytochrome P450s (1A2, 2C9, 2C19, 2D6 and 3A4) were evaluated in human liver microsomes. Test compounds (10 µM final concentration) or control compounds (α-naphthoflavone, sulfaphenazole, (+)-N-3-benzylnirvanol, quinidine, ketoconazole; 3-µM final concentration), and the corresponding substrates for each P450 isoform (1A2: phenacetin, 10-µM final concentration; 2C9: diclofenac, 5-µM final concentration; 2C19: S-mephenytoin, 30-µM final concentration, 2D6: dextromethorphan, 5-µM final concentration; 3A4: midazolam, 2-µM final concentration) were incubated with human liver microsomes (0.2-mg/mL final concentration; Corning Cat # 452117) and NADPH cofactor (1-mM final concentration, Chem-impex Cat # 00616) for 10 min at 37 °C. The reaction was terminated by adding 400 µL of cold stop solution (200 ng/mL tolbutamide and labetalol in acetonitrile), and the samples were centrifuged at 1520 g for 20 min. Next, 200-μL aliquots of supernatants were diluted with 100 μL of ultra-pure water and shaken for 10 min. The samples were analyzed by LC-MS/MS using an analyte/internal standard peak area ratio. Test compounds and positive controls were tested in duplicate. The percentage of inhibition was calculated as the ratio of substrate metabolite detected in treated and non-treated wells.

[6] = target: T2, cytochrome P450 3A4 (Homo sapiens, UniProt P08684); assay: CYP inhibition in human liver microsomes; assay type: in vitro ADME; settings: 10 µM
T2 construct: Corning Cat # 452117); tissue Corning 452117; host or cells: human liver microsomes
T2 sequence (P08684 whole entry): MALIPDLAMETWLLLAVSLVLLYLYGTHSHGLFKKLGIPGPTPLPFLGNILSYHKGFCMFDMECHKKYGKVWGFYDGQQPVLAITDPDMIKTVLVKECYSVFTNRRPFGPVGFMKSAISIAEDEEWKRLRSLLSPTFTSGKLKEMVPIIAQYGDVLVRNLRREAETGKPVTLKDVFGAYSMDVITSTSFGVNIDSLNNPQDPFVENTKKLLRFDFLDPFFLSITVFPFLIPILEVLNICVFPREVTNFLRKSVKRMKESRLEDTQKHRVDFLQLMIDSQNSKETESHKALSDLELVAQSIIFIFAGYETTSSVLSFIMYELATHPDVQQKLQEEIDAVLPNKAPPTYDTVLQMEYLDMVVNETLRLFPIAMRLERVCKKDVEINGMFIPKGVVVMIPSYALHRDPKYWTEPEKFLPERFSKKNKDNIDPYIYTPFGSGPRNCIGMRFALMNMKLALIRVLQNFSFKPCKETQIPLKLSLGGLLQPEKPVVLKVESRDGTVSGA
Description: as §2

[7] = target: T3, cytochrome P450 2D6 (Homo sapiens, UniProt P10635); assay: CYP inhibition in human liver microsomes; assay type: in vitro ADME; settings: 10 µM
T3 construct: Corning Cat # 452117); tissue Corning 452117; host or cells: human liver microsomes
T3 sequence (P10635 whole entry): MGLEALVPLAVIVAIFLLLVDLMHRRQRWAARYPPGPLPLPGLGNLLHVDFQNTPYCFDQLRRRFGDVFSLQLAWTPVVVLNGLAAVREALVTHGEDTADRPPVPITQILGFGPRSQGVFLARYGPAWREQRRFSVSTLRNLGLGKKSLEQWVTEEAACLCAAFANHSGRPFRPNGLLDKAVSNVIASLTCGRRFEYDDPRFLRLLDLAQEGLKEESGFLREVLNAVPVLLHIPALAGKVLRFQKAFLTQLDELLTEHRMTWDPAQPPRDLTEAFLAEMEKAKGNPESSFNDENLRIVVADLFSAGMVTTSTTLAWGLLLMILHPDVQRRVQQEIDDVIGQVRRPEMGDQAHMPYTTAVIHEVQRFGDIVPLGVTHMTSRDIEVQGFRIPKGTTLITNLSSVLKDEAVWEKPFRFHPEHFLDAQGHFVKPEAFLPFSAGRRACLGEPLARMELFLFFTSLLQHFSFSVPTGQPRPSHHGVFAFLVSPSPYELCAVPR
Description: as §2

[8] = target: T4, cytochrome P450 1A2 (Homo sapiens, UniProt P05177); assay: CYP inhibition in human liver microsomes; assay type: in vitro ADME; settings: 10 µM
T4 construct: Corning Cat # 452117); tissue Corning 452117; host or cells: human liver microsomes
T4 sequence (P05177 whole entry): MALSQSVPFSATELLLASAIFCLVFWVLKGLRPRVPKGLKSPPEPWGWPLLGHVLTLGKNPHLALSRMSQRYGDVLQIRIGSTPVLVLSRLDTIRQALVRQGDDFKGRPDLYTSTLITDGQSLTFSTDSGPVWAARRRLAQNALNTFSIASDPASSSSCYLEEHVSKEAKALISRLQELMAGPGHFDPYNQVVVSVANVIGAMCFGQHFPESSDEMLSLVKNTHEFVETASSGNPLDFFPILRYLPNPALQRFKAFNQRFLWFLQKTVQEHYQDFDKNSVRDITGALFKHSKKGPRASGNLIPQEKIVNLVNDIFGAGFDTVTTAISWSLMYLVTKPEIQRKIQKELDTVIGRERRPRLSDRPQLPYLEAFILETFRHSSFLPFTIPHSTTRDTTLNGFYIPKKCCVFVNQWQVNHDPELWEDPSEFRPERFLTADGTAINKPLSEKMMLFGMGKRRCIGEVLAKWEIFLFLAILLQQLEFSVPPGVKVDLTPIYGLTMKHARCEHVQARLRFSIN
Description: as §2

[9] = target: T5, cytochrome P450 2C19 (Homo sapiens, UniProt P33261); assay: CYP inhibition in human liver microsomes; assay type: in vitro ADME; settings: 10 µM
T5 construct: Corning Cat # 452117); tissue Corning 452117; host or cells: human liver microsomes
T5 sequence (P33261 whole entry): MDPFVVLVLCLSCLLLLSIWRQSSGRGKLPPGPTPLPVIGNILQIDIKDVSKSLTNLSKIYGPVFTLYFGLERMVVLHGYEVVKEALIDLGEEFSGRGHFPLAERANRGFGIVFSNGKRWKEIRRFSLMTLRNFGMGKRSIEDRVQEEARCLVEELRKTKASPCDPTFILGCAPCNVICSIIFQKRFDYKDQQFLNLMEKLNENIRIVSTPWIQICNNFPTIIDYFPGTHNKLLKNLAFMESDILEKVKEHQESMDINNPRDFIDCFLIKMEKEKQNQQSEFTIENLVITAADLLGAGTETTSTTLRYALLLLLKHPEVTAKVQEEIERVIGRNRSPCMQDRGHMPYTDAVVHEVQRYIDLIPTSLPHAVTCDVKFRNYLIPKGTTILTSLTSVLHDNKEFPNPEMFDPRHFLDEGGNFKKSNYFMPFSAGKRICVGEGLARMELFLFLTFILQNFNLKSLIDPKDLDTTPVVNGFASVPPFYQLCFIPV
Description: as §2

[10] = HL-60, replicates 1-3 (Figure 2E)
[11] = HL-60, replicates 1-3 (Figure 2G)
[12] = HL-60 treated daily for 48 h, replicates (Fig 6F)
[13] = MOLM-13, daily treatment for 48 h, replicates 1-3
[14] = ML-2, replicates 1-3 (Figure 2E)
[15] = ML-2, replicates 1-3 (Figure 2G)
[16] = ML-2 treated daily for 48 h, replicates (Fig 6G)

## COc1cc2nc(-c3cc(C)oc3C)cc(NCC3CCN(c4ncc(C(=O)NO)cn4)CC3)c2cc1OC [CM-1758, 2-[4-[[[2-(2,5-dimethyl-3-furyl)-6,7-dimethoxy-4-quinolyl]amino]methyl] -1-piperidyl]pyrimidine-5-carbohydroxamic acid]
[1]; [10]
  q-PCR of CDKN1A (p21), log10 (2-ΔΔCt): 1.37 and 1.926 and 1.271
  q-PCR of CDKN2A (p16), log10 (2-ΔΔCt): 0.4933 and 0.5726 and 0.5849
  q-PCR of MYC, log10 (2-ΔΔCt): -0.8313 and -0.6255 and -0.6597
[1]; [11]
  q-PCR of CEBPA, log10 (2-ΔΔCt): 0.9022 and 0.7826 and 0.9863
  q-PCR of GATA2, log10 (2-ΔΔCt): 0.6526 and 0.7826 and 0.7794
  q-PCR of SPI1 (PU.1), log10 (2-ΔΔCt): 0.3258 and 0.4025 and 0.5101
  q-PCR of TAL1 (SCL), log10 (2-ΔΔCt): 0.0125 and 0.0025 and -0.00845
[1]; [12]
  q-PCR of CEBPA: 1.657 log10 (2-ΔΔCt) and 1.235 log10 (2-ΔΔCt) and 2.096 log10 (2-ΔΔCt)
  q-PCR of GATA2: 0.5314 log10 (2-ΔΔCt) and 0.9421 log10 (2-ΔΔCt) and 0.9001 log10 (2-ΔΔCt)
  q-PCR of MYC: -0.7182 log10 (2-ΔΔCt) and -0.6003 log10 (2-ΔΔCt) and -0.8615 log10 (2-ΔΔCt)
  q-PCR of SPI1: 0.5322 log10 (2-ΔΔCt) and 0.69 log10 (2-ΔΔCt) and 0.7959 log10 (2-ΔΔCt)
  q-PCR of TAL1: 1.7134 log10 (2-ΔΔCt) and 1.966 log10 (2-ΔΔCt) and 2.209 log10 (2-ΔΔCt)
[2]; [13]
  q-PCR of CEBPA, log10 (2-ΔΔCt): 2.72 and 2.6188 and 2.826
  q-PCR of GATA2, log10 (2-ΔΔCt): 1.088 and 1.1424 and 1.015
  q-PCR of MYC, log10 (2-ΔΔCt): -0.6216 and -0.5326 and -0.5822
  q-PCR of SPI1, log10 (2-ΔΔCt): 0.02692 and 0.258 and 0.1525
  q-PCR of TAL1, log10 (2-ΔΔCt): 1.716 and 1.83 and 1.719
[2]; MOLM-13, q-PCR
  CDKN1A log10 (2-ΔΔCt): 0.1026 and 0.1237 and 0.1127
  CDKN2A log10 (2-ΔΔCt): 1.026 and 0.9216 and 0.9282
  GATA2 log10 (2-ΔΔCt): 0.5214 and 0.4825 and 0.3541
  MYC log10 (2-ΔΔCt): -0.9936 and -0.8825 and -0.8494
  SPI1 log10 (2-ΔΔCt): 0.02258 and 0.0358 and 0.04789
  TAL1 log10 (2-ΔΔCt): 1.37 and 1.426 and 1.336
[3]; [14]
  q-PCR of CDKN1A (p21), log10 (2-ΔΔCt): 1.727 and 1.688 and 1.928
  q-PCR of CDKN2A (p16), log10 (2-ΔΔCt): 0.7127 and 0.6825 and 0.5556
  q-PCR of MYC, log10 (2-ΔΔCt): -0.9587 and -1.237 and -1.248
[3]; [15]
  q-PCR of CEBPA, log10 (2-ΔΔCt): 1.926 and 1.786 and 1.671
  q-PCR of GATA2, log10 (2-ΔΔCt): 2.013 and 1.996 and 2.475
  q-PCR of SPI1 (PU.1), log10 (2-ΔΔCt): 0.4833 and 0.5215 and 0.7318
  q-PCR of TAL1 (SCL), log10 (2-ΔΔCt): 1.453 and 1.626 and 1.68
[3]; [16]
  q-PCR of CEBPA: 1.831 log10 (2-ΔΔCt) and 1.961 log10 (2-ΔΔCt) and 2.004 log10 (2-ΔΔCt)
  q-PCR of GATA2: 1.288 log10 (2-ΔΔCt) and 1.216 log10 (2-ΔΔCt) and 1.319 log10 (2-ΔΔCt)
  q-PCR of MYC: -0.6622 log10 (2-ΔΔCt) and -0.5247 log10 (2-ΔΔCt) and -0.8222 log10 (2-ΔΔCt)
  q-PCR of SPI1: 0.8685 log10 (2-ΔΔCt) and 0.5818 log10 (2-ΔΔCt) and 0.6427 log10 (2-ΔΔCt)
  q-PCR of TAL1: 1.398 log10 (2-ΔΔCt) and 0.9599 log10 (2-ΔΔCt) and 0.8228 log10 (2-ΔΔCt)
[4]; 10 mg/kg i.p. daily over 3 weeks, 1-week washout, Rag2-/-γc-/- mice
  tolerability: well tolerated
[4]; Week 3
  ALT (Counts (U/L)): 17 U/L and 4.5 U/L and 5.5 U/L and 9 U/L
  AST (Counts (U/L)): 148.5 U/L and 43 U/L and 38.5 U/L and 74 U/L
  Bilirubin (Counts (mg/dl)): 0 mg/dl (2×) and 0.05 mg/dl (2×)
  HDL (Counts (mmol/l)): 3.2 mmol/L and 2.05 mmol/L and 0.6 mmol/L and 2.55 mmol/L
  LCLC3 (Counts (mmol/l)): 0.2 mmol/l (2×) and 0.1 mmol/l (2×)
  UREA (Counts (mg/dl)): 20.7 mg/dL and 26.4 mg/dL and 33.1 mg/dL and 24.1 mg/dL
  Hematocrit (Counts (%)): 47.2% and 36.5% and 46.9% and 44.2%
  Hemoglobin (Counts (g/dl)): 17.4 g/dL and 13.4 g/dL and 17.3 g/dL and 16.8 g/dL
  PLT (Counts (K/O)): 870 K/O and 786 K/O and 1040 K/O and 1436 K/O
  RBC (Counts (K/O)): 9.53 K/O and 7.63 K/O and 9.68 K/O and 9.71 K/O
  WBC (Counts (K/O)): 3.3 K/O and 2.28 K/O and 4.16 K/O and 1.16 K/O
[4]; Week 4
  ALT (Counts (U/L)): 14.1 U/L and 27 U/L and 21.9 U/L and 7.5 U/L
  AST (Counts (U/L)): 46.8 U/L and 244.8 U/L and 155.7 U/L and 62.1 U/L
  Bilirubin (Counts (mg/dl)): 0 mg/dL and 0.06 mg/dL and 0.12 mg/dL and 0.03 mg/dL
  HDL (Counts (mmol/l)): 2.61 mmol/L and 2.43 mmol/L and 2.31 mmol/L and 2.37 mmol/L
  LCLC3 (Counts (mmol/l)): 0.21 mmol/l (3×) and 0.27 mmol/l
  UREA (Counts (mg/dl)): 26.61 mg/dl and 26.58 mg/dl (2×) and 31.89 mg/dl
[4]; 7d Washout
  Hematocrit (Counts (%)): 51% and 54.2% and 45.9% and 52.8%
  Hemoglobin (Counts (g/dl)): 17.7 g/dL and 17.6 g/dL and 16.1 g/dL and 17.4 g/dL
  PLT (Counts (K/O)): 1572 K/O and 1571 K/O and 1050 K/O and 1405 K/O
  RBC (Counts (K/O)): 9.8 K/O and 10.2 K/O and 8.86 K/O and 10.25 K/O
  WBC (Counts (K/O)): 1.4 K/O and 1.52 K/O and 3.74 K/O and 2.44 K/O
[4]; Week 1
  Hematocrit (Counts (%)): 48.1% and 47% and 47.7% and 46.6%
  Hemoglobin (Counts (g/dl)): 17.8 g/dL and 17.5 g/dL and 18 g/dL and 17.7 g/dL
  PLT (Counts (K/O)): 866 K/O and 806 K/O and 880 K/O and 983 K/O
  RBC (Counts (K/O)): 9.36 K/O and 9.79 K/O and 10.18 K/O (2×)
  WBC (Counts (K/O)): 1.68 K/O and 1.52 K/O and 1.6 K/O and 1.16 K/O
[4]; Week 2
  Hematocrit (Counts (%)): 51.3% and 48.5% and 45.7% and 50.4%
  Hemoglobin (Counts (g/dl)): 18.2 g/dL and 18 g/dL and 17.2 g/dL and 17.7 g/dL
  PLT (Counts (K/O)): 1496 K/O and 1628 K/O and 1531 K/O and 1908 K/O
  RBC (Counts (K/O)): 10.07 K/O and 9.97 K/O and 9.38 K/O and 10.01 K/O
  WBC (Counts (K/O)): 10.02 K/O and 4.3 K/O and 5.26 K/O and 5.18 K/O
[5]
  P450S Inhibition (2C9): 12.2%
[6]
  P450S Inhibition (3A4): 46.9%
[7]
  P450S Inhibition (2D6): 13.1%
[8]
  P450S Inhibition (1A2): 55.4%
[9]
  P450S Inhibition (2C19): 23.7%
